Experimental findings from ChEMBL document CHEMBL1201862, “PubChem BioAssay data set” (2004) are described below.

Test systems include SNB-75; MDA-MB-231; MCF7; HL-60; BT-549; UO-31; 786-0; NCI-H23; A549; MDA-MB-435; HOP-62; SK-MEL-2; CAKI-1; IGROV-1; OVCAR-8; KM12; OVCAR-4; K562; OVCAR-3; EKVX.
Common to all, as to test: DTP human tumour cell line panel, 48 h

As a reminder, the GI50 is the concentration giving 50% growth inhibition.

Where a name gives a salt, the structure may show the parent alone.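 These data come from cells grown in 96-well plates and exposed to compound for 48 hours at five concentrations. GI50: concentration for 50% inhibition of growth.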 Calls of active or inactive are those of the source. No stated cut-off is given here; in the data, active = GI50 up to about 1.1 µM and inactive = higher. Bounds are passed on as bounds.

Turning to `CN1CCN(CCCN)CC1`, the GI50 in the assay on SNB-75, in the assay with MDA-MB-231, with MCF7, in the assay with HL-60, with BT-549 and in the assay on UO-31 was > 100 µM (inactive) in each case. Moreover, the GI50 in the assay with 786-0, in the assay on NCI-H23, with A549, in the assay on MDA-MB-435, in the assay with HOP-62 and in the assay with SK-MEL-2 was > 100 µM (inactive) each time. In addition, the GI50 with CAKI-1, with IGROV-1, in the assay with OVCAR-8, in the assay on KM12, with OVCAR-4 and in the assay with K562 was > 100 µM (inactive) in each case. The GI50 in the assay on OVCAR-3 and with EKVX was > 100 µM (inactive) each time.

Consider `N=C(N)c1ccc(-c2ccc(-c3ccc(C(=N)N)cc3)o2)cc1` [FURAMIDINE HYDROCHLORIDE], for which the GI50 with SNB-75 was 42 µM (inactive); with MDA-MB-231 it was > 100 µM (inactive); with MCF7, 17.5 µM (inactive); in the assay on HL-60, 77.8 µM (inactive); in the assay on BT-549, 37.5 µM (inactive); with UO-31, 15.8 µM (inactive). The GI50 with 786-0 was 23.2 µM (inactive); in the assay with NCI-H23 it was 22 µM (inactive); with A549, 34.2 µM (inactive); in the assay with MDA-MB-435 it was 30.7 µM (inactive); in the assay with HOP-62, 29 µM (inactive); in the assay on SK-MEL-2, 23.8 µM (inactive). The GI50 with CAKI-1 is 54.3 µM (inactive); in the assay on IGROV-1, 46.3 µM (inactive); with OVCAR-8 it was 33.7 µM (inactive); with KM12 it was 22.5 µM (inactive); in the assay with OVCAR-4, > 100 µM (inactive); in the assay with K562, 22.8 µM (inactive). For the same molecule, the figures for the GI50 in the assay with OVCAR-3 and in the assay on EKVX were > 100 µM (inactive) and 28.4 µM (inactive), respectively.

As to `C/C1=C\CC[C@@]2(C)O[C@@H]2C[C@@H](C2(C)CO2)CC/C(C)=C/CC1` (stereo not given in full), the GI50 is 26.2 µM (inactive) with SNB-75; 18.5 µM (inactive) with MDA-MB-231; 21.7 µM (inactive) in the assay on MCF7; 27.1 µM (inactive) in the assay on HL-60; 21.2 µM (inactive) in the assay on BT-549; 25.2 µM (inactive) with UO-31. Further, the GI50 with 786-0 is 16.8 µM (inactive); in the assay with NCI-H23 it was 19.4 µM (inactive); in the assay on A549, 16.1 µM (inactive); in the assay with MDA-MB-435 it was 20.6 µM (inactive); in the assay with HOP-62, 30.3 µM (inactive); with SK-MEL-2 it was 27.9 µM (inactive). Besides, the GI50 was 19.6 µM (inactive) with CAKI-1; 32.9 µM (inactive) with IGROV-1; 19.1 µM (inactive) in the assay with OVCAR-8; 17.5 µM (inactive) in the assay on KM12; 37.4 µM (inactive) in the assay on OVCAR-4; 34.4 µM (inactive) in the assay with K562. Besides, the GI50 in the assay with OVCAR-3 was 23.8 µM (inactive); with EKVX, 13.8 µM (inactive).

With `CC(C)=CCC[C@@H](C)C1=C(O)C(=O)C(C)=C(Nc2ccccc2Cl)C1=O`, the GI50 is 8.75 µM (inactive) in the assay on SNB-75; 40.4 µM (inactive) with MDA-MB-231; 24.4 µM (inactive) with MCF7; 1.22 µM (inactive) in the assay with HL-60; 32.4 µM (inactive) with BT-549; 12.4 µM (inactive) with UO-31. Besides, the GI50 with 786-0 was 12.9 µM (inactive); in the assay on NCI-H23, 12.5 µM (inactive); in the assay with A549, 19 µM (inactive); in the assay with MDA-MB-435 it was 23.9 µM (inactive); in the assay with HOP-62, 11.6 µM (inactive); with SK-MEL-2 it was 15.5 µM (inactive). The GI50 in the assay on CAKI-1 is 16 µM (inactive); in the assay with IGROV-1, 5.81 µM (inactive); in the assay on OVCAR-8 it was 4.71 µM (inactive); in the assay with KM12 it was 10.8 µM (inactive); in the assay with OVCAR-4, 11.2 µM (inactive); with K562, 36 µM (inactive). The GI50 with OVCAR-3 is 10.8 µM (inactive); in the assay on EKVX it was 19 µM (inactive).

`Cc1cccc(C)c1NC(=O)C(=O)CC(=O)/C=C/c1ccccc1`: the GI50 with SNB-75, in the assay on MDA-MB-231, in the assay with MCF7, in the assay with HL-60, in the assay with BT-549 and with UO-31 was > 100 µM (inactive) in each case. Besides, the GI50 in the assay on 786-0, in the assay with NCI-H23, in the assay on A549, in the assay with MDA-MB-435, in the assay on HOP-62 and in the assay on SK-MEL-2 was > 100 µM (inactive) in each case. Besides, the GI50 in the assay with CAKI-1, with IGROV-1, with OVCAR-8, in the assay on KM12, in the assay with OVCAR-4 and with K562 was > 100 µM (inactive) throughout. For the same molecule, the GI50 in the assay on OVCAR-3 and in the assay with EKVX was > 100 µM (inactive) throughout.

With `CC(C)CCC/C(CBr)=C(\Cl)CCl`, the GI50 in the assay on SNB-75 is 1.95 µM (inactive); in the assay on MDA-MB-231, 2.81 µM (inactive); with MCF7, 4.08 µM (inactive); in the assay with HL-60, 0.103 µM (active); with BT-549, 1.82 µM (inactive); in the assay with UO-31, 3.27 µM (inactive). Besides, the GI50 in the assay with 786-0 was 1.85 µM (inactive); in the assay with NCI-H23, 2.4 µM (inactive); with A549, 15.7 µM (inactive); in the assay on MDA-MB-435 it was 2.36 µM (inactive); in the assay on HOP-62, 8.02 µM (inactive); with SK-MEL-2, 1.46 µM (inactive). Also, the GI50 is 5.06 µM (inactive) in the assay on CAKI-1; 1.6 µM (inactive) in the assay on IGROV-1; 1.56 µM (inactive) in the assay on OVCAR-8; 2.15 µM (inactive) in the assay with KM12; 1.48 µM (inactive) with OVCAR-4; 0.104 µM (active) in the assay with K562. Moreover, the GI50 is 2.53 µM (inactive) with OVCAR-3 and 16.6 µM (inactive) with EKVX.

With `CCOC(=O)c1ccc2nc(-c3ccc(S(=O)(=O)F)cc3)cc(O)c2c1`, the GI50 in the assay with SNB-75 is 25.2 µM (inactive); with MDA-MB-231, 36.3 µM (inactive); in the assay with MCF7, 30.1 µM (inactive); with HL-60 it was 26.7 µM (inactive); in the assay on BT-549 it was 37.8 µM (inactive); with UO-31 it was 71 µM (inactive). Moreover, the GI50 with 786-0 is 36.4 µM (inactive); in the assay on NCI-H23, 21.6 µM (inactive); in the assay on A549, 53.3 µM (inactive); in the assay on MDA-MB-435 it was 40.9 µM (inactive); in the assay with HOP-62, 32.5 µM (inactive); with SK-MEL-2 it was 27.5 µM (inactive). In addition, the GI50 with CAKI-1 is 39.9 µM (inactive); with IGROV-1, 48.8 µM (inactive); with OVCAR-8, 61.2 µM (inactive); with KM12, 29.8 µM (inactive); in the assay with OVCAR-4, 65.3 µM (inactive); in the assay on K562, 42.8 µM (inactive). Further, the GI50 in the assay on OVCAR-3 was 19.6 µM (inactive); with EKVX, > 100 µM (inactive).

On to `CC(=O)OCC(=O)O[C@@H]1[C@H]2[C@@H](OC(=O)c3ccccc3)[C@@H](C)C[C@]2(O)[C@H](OC(C)=O)[C@@]2(C)C(OC(C)=O)[C@]1(OC(C)=O)C[C@H]1C(=O)C(C)(C)C[C@@H]12` (stereo not given in full), for which the GI50 was > 50 µM (inactive) with SNB-75; > 50 µM (inactive) with MDA-MB-231; > 50 µM (inactive) in the assay with MCF7; 6.46 µM (inactive) in the assay with HL-60; > 35 µM (inactive) in the assay on BT-549; > 50 µM (inactive) with UO-31. In addition, the GI50 is > 50 µM (inactive) in the assay on 786-0; > 50 µM (inactive) with NCI-H23; 9.98 µM (inactive) in the assay with A549; 26.2 µM (inactive) in the assay with MDA-MB-435; > 22.6 µM (inactive) with HOP-62; > 50 µM (inactive) in the assay with SK-MEL-2. The GI50 with CAKI-1 is 37.6 µM (inactive); in the assay on IGROV-1 it was > 50 µM (inactive); in the assay with OVCAR-8, > 50 µM (inactive); in the assay with KM12 it was > 50 µM (inactive); in the assay with OVCAR-4, > 34.2 µM (inactive); in the assay with K562, 9.02 µM (inactive). Also, the GI50 in the assay with OVCAR-3 was > 46.6 µM (inactive); in the assay on EKVX, > 42 µM (inactive).

With `CCOc1cnc(C(O)(c2ccccc2)c2ccccc2)o1`, the GI50 in the assay with SNB-75, with MDA-MB-231, with MCF7, in the assay with HL-60, with BT-549 and in the assay with UO-31 was > 100 µM (inactive) throughout. The GI50 in the assay with 786-0, with NCI-H23, in the assay on A549, in the assay with MDA-MB-435, with HOP-62 and in the assay with SK-MEL-2 was > 100 µM (inactive) in each case. Moreover, the GI50 in the assay on CAKI-1, in the assay on IGROV-1, with OVCAR-8, in the assay with KM12, in the assay with OVCAR-4 and with K562 was > 100 µM (inactive) in each case. Also, the GI50 in the assay on OVCAR-3 and in the assay with EKVX was > 100 µM (inactive) each time.

Regarding `CCCCCCCCCCCCC(O)C1CCC(C(O)CCCCCCC(O)CCCCCCCC2=CC(C)OC2=O)O1` (stereo not given), the GI50 in the assay on SNB-75 was 5.58 µM (inactive); in the assay on MDA-MB-231, 28.6 µM (inactive); in the assay on MCF7 it was 0.745 µM (active); with HL-60 it was 3.92 µM (inactive); with BT-549, 8.87 µM (inactive); with UO-31, 3.08 µM (inactive). Besides, the GI50 with 786-0 was 32.9 µM (inactive); in the assay with NCI-H23 it was 0.0109 µM (active); with A549, 4.23 µM (inactive); in the assay with MDA-MB-435, 2.67 µM (inactive); in the assay on HOP-62 it was 42.3 µM (inactive); with SK-MEL-2 it was 24.6 µM (inactive). Also, the GI50 in the assay with CAKI-1 was 24.9 µM (inactive); in the assay on IGROV-1, 35.5 µM (inactive); in the assay with OVCAR-8 it was 36.6 µM (inactive); in the assay with KM12, 32.4 µM (inactive); in the assay on OVCAR-4, 34.4 µM (inactive); in the assay with K562 it was 6.55 µM (inactive). The GI50 in the assay with OVCAR-3 was 20.8 µM (inactive); with EKVX, 1.71 µM (inactive).
